Test results from patent US12403141B2, “Deuterated MK2 pathway inhibitors and methods of using the same” (ACLARIS THERAPEUTICS, INC., priority 2019, dated 2025).
Like-named read-outs stand apart in the source and are kept apart here.

Assays:
[1] = IV pharmacokinetics in male SD rats; assay type: in vivo, rat; details: for clearance: male, Sprague-Dawley, rat, plasma, iv
Experimental: Pharmacokinetic parameters of some examples were evaluated in male Sprague Dawley (SD) rats after intravenous (IV) and oral (PO) dosing. Male SD rats (5-6 weeks of age) were fasted for 12 hours before administration of the compound of interest. Animals were allowed access to food 2 h after dosing and water was given ad libitum. Except for the compound of Example 13, pharmacokinetic experiments comparing deuterium containing and non-deuterium containing compounds were performed at the same time using the same cohort of animals. The pharmacokinetic properties of the compound of Example 13 were evaluated separately and compared to previously generated data.
For IV dosing, a 0.5 mg/mL solution of the test compound was prepared in a vehicle consisting of 5% DMSO, 5% Cremophore, 90% normal saline. For a 1 mpk dose, 2 mL/kg of this dosing vehicle was administered to each rat by bolus injection into the tail vein. For lower doses, the dosing solution was diluted with the appropriate amount of vehicle. Example 3 was evaluated at 3 mpk by preparing a 1.5 mg/mL solution in the same vehicle and dosing 2 mL/kg. Blood samples from each animal was collected in di-sodium EDTA coated containers at 0.12, 0.25, 0.5, 1.0, 2.0, 4.0, 8.0 and 24.0 hours after dosing. Plasma was separated from the blood samples within 15 minutes following collection and stored at −20±5° C. before analysis.
A standard curve was generated from a stock solution of the test compound with known concentration in methanol. Working solutions having known concentrations ranging from 5-20,000 ng/mL were prepared from the stock solution by dilution with methanol:water (80:20 v/v). 5 uL of the working solutions were added to 45 uL of blank rat plasma to provide standard samples for analysis.
Plasma samples collected from rats after dosing were allowed to reach room temperature. A 50 uL aliquot of each plasma sample and the standard curve plasma samples were treated with 200 uL of acetonitrile containing an internal standard (100 ng/mL; warfarin/diclofenac) and mixed well. The samples were vortexed for 5 minutes followed by centrifugation for 5 minutes at 14000 rpm at 4° C. The supernatant (10 uL) was analyzed by LC-MS/MS (LC: Shimadzu SIL HTc, MS: MDS Sciex API-5500 & 4000 using 75%/25% acetonitrile/0.2% formic acid in Milli-Q water, flow rate: 1.0 mL/min, run time 3 minutes, Atlantis dC18(50×4.6 mm, 3 um; Waters®)) and the concentrations of the test compound in the plasma samples collected from rats at each time point were determined by comparison to the standard curve samples.
Pharmacokinetic parameters were calculated from the plasma concentrations at each time point using Phoenix WinNonlin (Version 7.0) by the non-compartmental analysis (NCA) method. Clearance values are reported as mL/min/kg. AUC values are reported as ng·h/mL.

minipig hepatocytes = assay: In vitro metabolite profile in minipig hepatocytes; assay type: in vitro ADME; design: key to UV % at 280-290 nm or observed (+ or --), metabolite M532b (Hydroxylation) / UV % at 280-290 nm or observed (+ or --), metabolite M532c (Hydroxylation) / UV % at 280-290 nm or observed (+ or --), metabolite M563 (O-dealkylation + Glucuronidation) / UV % at 280-290 nm or observed (+ or --), metabolite M530b (Hydroxylation) / UV % at 280-290 nm or observed (+ or --), metabolite M530c (Hydroxylation): +: only detected by MS; --: not detected or trace; details: 10 μM; for UV % at 280-290 nm, Parent-T0 min: T0 min (normalized as 100%)
Experimental: (§1) Briefly, each test compound (final concentration of 10 μM containing 0.1% DMSO) was incubated with rat, dog, minipig, monkey, or human hepatocytes (final viable cell density of 1×10^6 cells/mL) at 37° C. with 5% CO2 in HI hepatocyte maintenance media (BIOIVT; Catalog #Z99009) for 120 minutes. Reactions were initiated by combining 200 μL of pre-warmed 2× dosing solution containing 20 μM test compound and 0.2% DMSO in HI maintenance media with 200 μL of pre-warmed hepatocyte solution containing 2×10^6 cells/mL in HI maintenance media. Samples were taken at 0 minutes (T0) and 120 minutes (T120) by quenching the reaction with 1200 μL acetonitrile. After quenching, the samples were sonicated for 2 minutes and then centrifuged at 1400 rpm for 5 minutes. A 1400-μL aliquot of the supernatant was evaporated under a stream of N2 until dry. The dried extracts were then reconstituted with 200 μL acetonitrile: H2O (1:3 v/v), vortexed for 2 minutes and centrifuged at 14000 rpm for 5 minutes. A 2-μL aliquot of the supernatant was injected onto a Xevo UPLC-UV-G2-S Q-Tof system (Waters®) with positive-ion electrospray ionization for analysis. Chromatographic separation was achieved on an Acquity UPLC®BEH C18 column (2.1×50 mm, 1.7 μm; Waters®) by gradient elution using varying proportions of mobile phase A (H2O with 0.1% formic acid) and mobile phase B (acetonitrile with 0.1% formic acid) at a constant flow rate of 400 μL/minute over a total run time of 10 minutes. LC-UV-MS extract ion chromatograms (EIC) of the T120 samples were compared to the T0 samples to identify the major putative metabolites which were named as Mm/z.

monkey hepatocytes = assay: In vitro metabolite profile in monkey hepatocytes; assay type: in vitro ADME; design: key to UV % at 280-290 nm or observed (+ or --), metabolite M387 (O-dealkylation) / UV % at 280-290 nm or observed (+ or --), metabolite M532b (Hydroxylation) / UV % at 280-290 nm or observed (+ or --), metabolite M532c (Hydroxylation) / UV % at 280-290 nm or observed (+ or --), metabolite M532d (Hydroxylation) / UV % at 280-290 nm or observed (+ or --), metabolite M563 (O-dealkylation + Glucuronidation) / UV % at 280-290 nm or observed (+ or --), metabolite M530b (Hydroxylation) / UV % at 280-290 nm or observed (+ or --), metabolite M530c (Hydroxylation) / UV % at 280-290 nm or observed (+ or --), metabolite M530d (Hydroxylation): +: only detected by MS; --: not detected or trace; details: 10 μM; for UV % at 280-290 nm, Parent-T0 min: T0 min (normalized as 100%)
Experimental: as §1

[2] = 120 min, relative to parent at T0

## Cc1cnc(-c2ccnc(C(C)(C)O)n2)cc1-n1c(C)cc(OCc2ncc(F)cc2F)c(Cl)c1=O (atropisomer, axis not shown; (P)) [Example 1-H2, (P)-3-chloro-4-((3,5-difluoropyridin-2-yl)methoxy)-2′-(2-(2-hydroxypropan-2-yl)pyrimidin-4-yl)-5′,6-dimethyl-2H-[1,4′-bipyridin]-2-one]
[1]; IV 0.1 mpk, ± one standard deviation
  IV clearance 0.1 mpk: 24 ± 4 mL/min/kg
[1]; IV 0.3 mpk, ± one standard deviation
  IV clearance 0.3 mpk: 23 ± 7 mL/min/kg
[1]; IV 1 mpk, ± one standard deviation
  IV clearance 1 mpk: 24 ± 5 mL/min/kg
Minipig hepatocytes; [2]
  UV % at 280-290 nm or observed (+ or --), metabolite M387 (O-dealkylation): 14.4%
  UV % at 280-290 nm or observed (+ or --), metabolite M530b (Hydroxylation): --
  UV % at 280-290 nm or observed (+ or --), metabolite M530c (Hydroxylation): +
  UV % at 280-290 nm or observed (+ or --), metabolite M530e (Hydroxylation): 2.4%
  UV % at 280-290 nm or observed (+ or --), metabolite M563 (O-dealkylation + Glucuronidation): +
  UV % at 280-290 nm or observed (+ or --), metabolite M530d (Hydroxylation): 1.6%
  UV % at 280-290 nm, Parent-T120 min: 70.0%
Minipig hepatocytes
  UV % at 280-290 nm, Parent-T0 min: 100.0%
Monkey hepatocytes; [2]
  UV % at 280-290 nm or observed (+ or --), metabolite M387 (O-dealkylation): 4.8%
  UV % at 280-290 nm or observed (+ or --), metabolite M530b (Hydroxylation): --
  UV % at 280-290 nm or observed (+ or --), metabolite M530c (Hydroxylation): +
  UV % at 280-290 nm or observed (+ or --), metabolite M530e (Hydroxylation): 1.5%
  UV % at 280-290 nm or observed (+ or --), metabolite M563 (O-dealkylation + Glucuronidation): +
  UV % at 280-290 nm or observed (+ or --), metabolite M530d (Hydroxylation): --
  UV % at 280-290 nm, Parent-T120 min: 85.7%
Monkey hepatocytes
  UV % at 280-290 nm, Parent-T0 min: 100.0%

## [2H]C([2H])(Oc1cc(C)n(-c2cc(-c3ccnc(C(C)(C)O)n3)ncc2C)c(=O)c1Cl)c1ncc(F)cc1F (single isomer, unassigned) [Example 1-D2, (P)-3-Chloro-4-((3,5-difluoropyridin-2-yl)methoxy-d2)-2′-(2-(2-hydroxypropan-2-yl)pyrimidin-4-yl)-5′,6-dimethyl-2H-[1,4′-bipyridin]-2-one]
[1]; IV, versus non-deuterated comparator Example 1-H2
  effect of deuterium substitution on clearance: clear and consistent reduction in clearance
[1]; 0.1 mg/kg, IV 0.1 mpk, ± one standard deviation, read-out: IV clearance 0.1 mpk
  clearance: 16 ± 4 mL/min/kg
[1]; 0.3 mg/kg, IV 0.3 mpk, ± one standard deviation, read-out: IV clearance 0.3 mpk
  clearance: 12 ± 3 mL/min/kg
[1]; 1 mg/kg, IV 1 mpk, ± one standard deviation, read-out: IV clearance 1 mpk
  clearance: 9.5 mL/min/kg
Minipig hepatocytes; [2]
  UV % at 280-290 nm or observed (+ or --), metabolite M532b (Hydroxylation): +
  UV % at 280-290 nm or observed (+ or --), metabolite M532c (Hydroxylation): +
  UV % at 280-290 nm, Parent-T120 min: 81.1%
Minipig hepatocytes
  UV % at 280-290 nm, Parent-T0 min: 100.0%
Monkey hepatocytes; [2]
  UV % at 280-290 nm or observed (+ or --), metabolite M387 (O-dealkylation): +
  UV % at 280-290 nm or observed (+ or --), metabolite M532b (Hydroxylation): --
  UV % at 280-290 nm or observed (+ or --), metabolite M532c (Hydroxylation): +
  UV % at 280-290 nm or observed (+ or --), metabolite M532d (Hydroxylation): +
  UV % at 280-290 nm, Parent-T120 min: 96.6%
Monkey hepatocytes
  UV % at 280-290 nm, Parent-T0 min: 100.0%
